Where two headings read alike, the source gives them in different places.
Assays:
GRK5 = biological target: T1, GRK5 (Homo sapiens, UniProt P34947); test: Differential scanning fluorimetry thermal shift assay; assay type: binding; conditions: for effect of salt on Tm of ATP·Mg2+-bound GRK5 / effect of salt on Tm of GRK5: increasing salt concentrations; for effect of salt on Tm of GRK5: no ligand; for increase of Tm of GRK5 upon ligand binding: relative to unliganded GRK5, ligand 5 mM, 2 μM GRK5
T1 construct: human GRK5WT or GRK5D311N (residues 1–590 followed by a hexahistidine tag); hexahistidine (C); made in house; host or cells: E. coli Rosetta (DE3)
T1 sequence (P34947 whole entry, the tested form may be a part): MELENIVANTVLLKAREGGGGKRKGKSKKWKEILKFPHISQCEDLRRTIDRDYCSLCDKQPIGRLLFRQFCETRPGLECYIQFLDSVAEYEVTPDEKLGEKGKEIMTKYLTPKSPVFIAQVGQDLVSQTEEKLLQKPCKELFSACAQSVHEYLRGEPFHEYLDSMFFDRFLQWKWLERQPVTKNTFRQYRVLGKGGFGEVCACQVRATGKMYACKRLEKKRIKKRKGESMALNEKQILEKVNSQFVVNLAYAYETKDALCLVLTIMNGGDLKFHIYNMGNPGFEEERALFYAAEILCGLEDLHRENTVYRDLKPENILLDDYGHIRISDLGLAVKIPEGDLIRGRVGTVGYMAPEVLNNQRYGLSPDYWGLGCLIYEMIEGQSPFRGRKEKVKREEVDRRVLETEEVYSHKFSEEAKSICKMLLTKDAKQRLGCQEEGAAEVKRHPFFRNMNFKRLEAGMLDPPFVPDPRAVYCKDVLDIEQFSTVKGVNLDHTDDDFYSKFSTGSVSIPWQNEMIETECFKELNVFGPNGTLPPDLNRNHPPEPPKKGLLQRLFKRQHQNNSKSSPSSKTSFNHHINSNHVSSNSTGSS
Procedure: Samples were mixed with Protein Thermal Shift dye to measure unfolding as a function of temperature. The Tm values were subtracted by the Tm of GRK5 in the same condition without the addition of salt to obtain ΔTm. Error bars correspond to SD (box) from three or more replicates (circles). […] Orange corresponds to GRK5 with Sgv and pink with AMP in buffer alone (20 mM Hepes [pH 7.2], 2 mM MgCl2). A one-tailed t test was used to determine significance (ns: p > 0.05, ∗p ≤ 0.05, ∗∗p ≤ 0.01, ∗∗∗p ≤ 0.001, and ∗∗∗∗p ≤ 0.0001). GRK, G protein–coupled receptor kinase; ns, not significant; Sgv, sangivamycin.
Full-length WT GRK5, GRK2, or GRK6 at a final concentration of 2 μM in the absence or the presence of different ligands were mixed with the Protein Thermal Shift Dye at a final concentration of 1X in buffer containing 20 mM Hepes (pH 7.2), 2 mM MgCl2, and 1 mM TCEP in addition to different concentrations of salts. The melting points were measured using a QuantStudio5 Real-Time PCR System in a 384-well transparent plate with a final reaction volume of 10 μl per well. […] Ligands including ATP, AMP–PNP, ADP, AMP, and Sgv were added at a final concentration of 5 mM. Readouts were measured and analyzed with Protein Thermal Shift Software to obtain Boltzmann Tm values. At least three replicates of individual runs from the same preparation of protein were performed to obtain the mean and standard deviation of Tm values.

GRK6 = biological target: T2, GRK6 (Homo sapiens, UniProt P43250, C561S/C562S/C565S); test: GRK kinase inhibition assay ([γ-32P]-ATP phosphorylation of tubulin); assay type: biochemical; conditions: substrate tubulin; for IC50: mean ± SD
T2 construct: Full-length WT GRK5, GRK2, or GRK6 at a final concentration of 2 μM; made in house; host or cells: Sf9 insect cells
T2 sequence (P43250 whole entry C561S/C562S/C565S): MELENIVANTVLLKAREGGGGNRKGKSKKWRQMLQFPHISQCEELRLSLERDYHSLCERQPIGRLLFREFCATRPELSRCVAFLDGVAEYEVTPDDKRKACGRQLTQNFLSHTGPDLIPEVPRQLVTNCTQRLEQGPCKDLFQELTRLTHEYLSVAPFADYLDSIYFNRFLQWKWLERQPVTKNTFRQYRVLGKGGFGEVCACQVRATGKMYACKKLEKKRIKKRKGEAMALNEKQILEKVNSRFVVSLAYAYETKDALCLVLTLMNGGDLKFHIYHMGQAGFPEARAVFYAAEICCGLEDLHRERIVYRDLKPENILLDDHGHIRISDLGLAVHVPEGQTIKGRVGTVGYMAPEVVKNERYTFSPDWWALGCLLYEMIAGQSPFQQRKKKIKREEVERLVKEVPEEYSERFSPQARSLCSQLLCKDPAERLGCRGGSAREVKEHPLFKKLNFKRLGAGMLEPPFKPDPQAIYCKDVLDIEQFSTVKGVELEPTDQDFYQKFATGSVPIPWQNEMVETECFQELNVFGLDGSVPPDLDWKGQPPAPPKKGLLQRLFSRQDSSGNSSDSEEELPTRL

GRK2 = biological target: T3, GRK2 (Homo sapiens, UniProt P25098, S670A); test: as above; assay type: biochemical; conditions: substrate tubulin; for IC50: mean ± SD
T3 construct: Full-length WT GRK5, GRK2, or GRK6 at a final concentration of 2 μM; made in house; host or cells: Sf9 insect cells
T3 sequence (P25098 1-689 S670A): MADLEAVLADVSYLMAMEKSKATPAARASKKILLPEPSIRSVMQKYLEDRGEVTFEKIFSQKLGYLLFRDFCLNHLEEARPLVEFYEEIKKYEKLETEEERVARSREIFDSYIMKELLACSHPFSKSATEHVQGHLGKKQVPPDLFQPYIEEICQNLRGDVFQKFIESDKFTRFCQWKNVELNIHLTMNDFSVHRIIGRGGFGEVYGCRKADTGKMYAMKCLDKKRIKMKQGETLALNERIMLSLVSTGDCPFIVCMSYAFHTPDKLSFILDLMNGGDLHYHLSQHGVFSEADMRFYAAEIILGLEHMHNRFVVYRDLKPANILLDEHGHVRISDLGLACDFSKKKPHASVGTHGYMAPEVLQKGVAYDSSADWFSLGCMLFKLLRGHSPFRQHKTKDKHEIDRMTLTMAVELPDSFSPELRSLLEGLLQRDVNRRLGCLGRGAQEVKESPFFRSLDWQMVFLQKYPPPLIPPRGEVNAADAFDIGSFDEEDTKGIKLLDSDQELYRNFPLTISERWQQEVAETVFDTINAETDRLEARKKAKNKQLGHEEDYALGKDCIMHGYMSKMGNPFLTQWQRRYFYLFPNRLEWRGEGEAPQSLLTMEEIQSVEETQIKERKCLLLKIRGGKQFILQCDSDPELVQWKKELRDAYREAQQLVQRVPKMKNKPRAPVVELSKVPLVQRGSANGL
Procedure: Following the protocol in Ref. ([19]), pMAL-vector plasmids bearing DNA encoding human GRK5WT or GRK5D311N (residues 1–590 followed by a hexahistidine tag) were transfected into E. coli Rosetta (DE3) and induced with isopropyl β-D-1-thiogalactopyranoside. Cells lysed using an Emulsiflex-C3 were treated with DNase I and 1 mM MgCl2 at room temperature for 10 min before centrifugation at 40,000g. GRK5 in the soluble fraction was then loaded onto a Ni^2+–NTA column for metal-affinity purification. Eluted GRK5 fractions were then loaded onto a tandem HiTrap Q HP-HiTrap SP HP column to capture impurities in the Q HP column, and GRK5 was eluted from the SP column using an NaCl concentration gradient from 100 to 600 mM. […] Purified GRK5 was used directly in crystallization or flash-frozen with liquid nitrogen and stored at −80 °C for later usage. Human GRK2S670A and GRK6FL_pal(−) are expressed in Sf9 insect cells and purified as described previously ([26], [31]). The S670A mutation in GRK2 eliminates a heterogenous mitogen-activated kinase phosphorylation site, and GRK6FL_pal(−) was used to remove palmitoylation sites in order to make expression and purification easier.
(§1) GRK inhibition assays were performed in 20 mM Hepes (pH 7.0), 2 mM MgCl2, 0.025% n-dodecyl-β-D-maltoside with 50 nM human GRK5WT as purified previously. […] A range of salt concentrations was added 30 s prior to 5 min reactions initiated by exposing samples to light followed by addition of 5 μM ATP supplemented with radioactive [γ-^32P]-ATP at 60 Ci/mmol (PerkinElmer Life Sciences) at room temperature. […] Reactions were quenched with 4X SDS loading buffer, separated in SDS-PAGE, dried, and read by phosphorimaging and then quantified via a Personal Molecular Imager and Quantity One 1-D Analysis Software. Data were analyzed via GraphPad Prism (GraphPad Software, Inc), and three-parameter dose-dependent curves (Hill coefficient = −1) plotting phosphate transferred against inhibitor concentration were used for the calculation of IC50 values. At least three replicates were obtained to calculate the mean and standard deviation of IC50 values. See Figure S4 for representative raw and processed data.

human GRK5WT = biological target: T4, human GRK5WT (Homo sapiens, UniProt P34947); test: GRK kinase inhibition assay ([γ-32P]-ATP phosphorylation of tubulin or Rho*); assay type: biochemical; conditions: for change in inhibition potency caused by K3Cit: GRK5 phosphorylation of tubulin and Rho*
T4 construct: human GRK5WT or GRK5D311N (residues 1–590 followed by a hexahistidine tag); hexahistidine (C); made in house; host or cells: E. coli Rosetta (DE3)
T4 sequence (P34947 whole entry, the tested form may be a part): as the sequence (P34947 whole entry, the tested form may be a part) above
Procedure: as §1, with “Data were analyzed via GraphPad Prism (GraphPad Software, Inc), and three-parameter dose-dependent curves (Hill coefficient = −1) plotting phosphate transferred against inhibitor concentration were used for the calculation of IC50 values.” left out

[1] = IC50 no K3Cit vs with 2 mM K3Cit, substrate tubulin
[2] = IC50 no K3Cit vs with 6 mM K3Cit, substrate Rho* in ROS
[3] = read-out: IC50 (no K3Cit), substrate Rho* in ROS, without K3Cit, mean and SD
[4] = read-out: IC50 (no K3Cit), substrate tubulin, without K3Cit, mean and SD

## [Cl-].[Na+] [NaCl]
GRK5; in the presence of ATP·Mg2+
  effect of salt on Tm of ATP·Mg2+-bound GRK5: decreased
GRK5
  effect of salt on Tm of GRK5: reduced it
GRK6
  GRK6 (Hill slope): −1.3
  IC50: 8000 ± 7000 µM
GRK2
  GRK2 (Hill slope): −1.2
  IC50: 21000 ± 2000 µM

## Nc1ncnc2c1ncn2[C@@H]1O[C@H](COP(=O)(O)OP(=O)(O)O)[C@@H](O)[C@H]1O [ADP]
Human GRK5WT
  change in inhibition potency caused by K3Cit: did not cause changes
Human GRK5WT; [1]
  Fold-change: 3
Human GRK5WT; [2]
  Fold-change: 1.5
Human GRK5WT; [3]
  IC50: 56 ± 6 µM
Human GRK5WT; [4]
  IC50: 28 ± 1 µM

## [Cl-].[K+] [KCl]
Human GRK5WT; GRK5, tubulin as the substrate
  lower potency than the corresponding citrate salts: about 35 fold
Human GRK5WT; substrate Rho* (LMNG)
  GRK5 (Hill slope): −1.6
Human GRK5WT; substrate Rho* (LMNG), mean ± SD, read-out: GRK5 IC50
  IC50: 11000 ± 2000 µM
Human GRK5WT; substrate Rho* (ROS)
  GRK5 (Hill slope): −1.9
Human GRK5WT; substrate Rho* (ROS), mean ± SD, read-out: GRK5 IC50
  IC50: 18000 ± 10000 µM
Human GRK5WT; substrate tubulin
  GRK5 (Hill slope): −1.7
Human GRK5WT; substrate tubulin, mean ± SD, read-out: GRK5 IC50
  IC50: 55000 ± 6000 µM
GRK5; in the presence of ATP·Mg2+
  effect of salt on Tm of ATP·Mg2+-bound GRK5: decreased
GRK5
  effect of salt on Tm of GRK5: did not increase GRK5 stability at any concentration
GRK6
  GRK6 (Hill slope): −2.3
  IC50: 14000 ± 4000 µM
GRK2
  GRK2 (Hill slope): −1.6
  IC50: 20000 ± 2000 µM

## NC(=O)c1cn([C@@H]2O[C@H](CO)[C@@H](O)[C@H]2O)c2ncnc(N)c12 [Sgv, sangivamycin]
Human GRK5WT; GRK5 phosphorylation of tubulin, 2 mM K3Cit
  reduction of the apparent IC50 by K3Cit: eightfold
Human GRK5WT; IC50 (no K3Cit), substrate Rho* in ROS, without K3Cit, mean and SD
  IC50: 4.5 ± 0.5 µM
Human GRK5WT; IC50 (no K3Cit), substrate tubulin, without K3Cit, mean and SD
  IC50: 11 ± 3 µM
Human GRK5WT; [1]
  Fold-change: 8
Human GRK5WT; [2]
  Fold-change: 6
Human GRK5WT; tubulin and receptor Rho* phosphorylation
  increase of potency of inhibition by K3Cit: ~8 fold
GRK5
  increase of Tm of GRK5 upon ligand binding: 5 °C

## O=C([O-])CC(O)(CC(=O)[O-])C(=O)[O-].[Na+].[Na+].[Na+] [Na3Cit, sodium citrate]
GRK6
  GRK6 (Hill slope): −1.2
  IC50: 1300 ± 900 µM
GRK2
  GRK2 (Hill slope): −1.6
  IC50: 700 ± 200 µM

## Nc1ncnc2c1ncn2[C@@H]1O[C@H](COP(=O)(O)OP(=O)([O-])OP(=O)([O-])O)[C@@H](O)[C@H]1O.[Mg+2] [ATP·Mg^2+]
GRK5
  increase of Tm of GRK5 upon ligand binding: 9 °C

## O.O=C([O-])CC(O)(CC(=O)[O-])C(=O)[O-].[K+].[K+].[K+] [K3Cit, potassium citrate tribasic monohydrate]
GRK5; in the presence of ATP·Mg2+, 20 mM K3Cit
  decrease of Tm of GRK5: 2 to 3 °C
GRK5; in the presence of ATP·Mg2+
  effect of salt on Tm of ATP·Mg2+-bound GRK5: biphasic behavior
GRK5; in the presence of Sgv
  effect of salt on Tm of Sgv-bound GRK5: further increased
GRK5
  effect of salt on Tm of GRK5: raised the Tm of GRK5 proportionally
GRK6
  GRK6 (Hill slope): −0.9
  IC50: 900 ± 500 µM
GRK2
  GRK2 (Hill slope): −1.3
  IC50: 800 ± 500 µM

## Nc1ncnc2c1ncn2[C@@H]1O[C@H](COP(=O)(O)O)[C@@H](O)[C@H]1O [AMP]
Human GRK5WT
  change in inhibition potency caused by K3Cit: did not cause changes
Human GRK5WT; [1]
  Fold-change: 1.5
Human GRK5WT; [2]
  Fold-change: 2
Human GRK5WT; [3]
  IC50: 1000 ± 100 µM
Human GRK5WT; [4]
  IC50: 700 ± 200 µM
GRK5
  increase of Tm of GRK5 upon ligand binding: does not stabilize GRK5 as much as Sgv

— PMC12268638, “Structural insights into the catalytic cycle of G protein–coupled receptor kinase 5 and a possible regulatory site for potassium ion” (The Journal of Biological Chemistry, 2025)
